# Where “and” joins values, the source holds several entries; their conditions need not be identical. Equal entries are not always repeated.
# Assays:
# [1] = molecular target: T1, acylase from Rhodococcus equi Ac6 (Rhodococcus (subgen. Prescottella) equi, UniProt A0A3S5Y3Z2); experiment: Enzymatic hydrolysis of racemic amides with partially purified acylase from Rhodococcus equi Ac6; type: biochemical; set-up: e.e. (R)-Amide: unit not given here; conditions: for Selectivity E: enantioselectivity of the hydrolysis; for e.e. (S)-Amine: formed amine, analysed as acetamide; for e.e. (R)-Amide: unconverted amide, chiral HPLC
# T1 construct: N-terminus […]
# T1 sequence (A0A3S5Y3Z2 1-487): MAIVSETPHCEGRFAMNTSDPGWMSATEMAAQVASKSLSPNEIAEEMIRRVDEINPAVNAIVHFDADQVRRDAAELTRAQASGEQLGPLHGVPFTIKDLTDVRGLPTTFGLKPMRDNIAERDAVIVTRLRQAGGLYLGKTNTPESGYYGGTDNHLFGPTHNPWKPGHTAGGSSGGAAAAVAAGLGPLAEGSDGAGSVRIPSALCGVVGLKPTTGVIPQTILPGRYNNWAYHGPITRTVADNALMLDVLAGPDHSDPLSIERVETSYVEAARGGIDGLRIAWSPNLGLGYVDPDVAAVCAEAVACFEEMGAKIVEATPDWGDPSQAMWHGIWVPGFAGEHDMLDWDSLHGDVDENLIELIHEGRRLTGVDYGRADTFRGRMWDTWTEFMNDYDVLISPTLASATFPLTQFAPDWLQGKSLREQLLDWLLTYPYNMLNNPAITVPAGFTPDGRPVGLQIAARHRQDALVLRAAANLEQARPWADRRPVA
# Protocol: (§1) To 10 ml of a 20 mM solution of each of the racemic amides shown below 1 in 0.1 M phosphate buffer pH 7.0, 5 ml (1.3 units) of the enzyme is added and the solutions are shaken at 100 rpm and 30° C. [drawing 10] [drawing 11]
# (§2) When the conversion reaches about 50% (checked by HPLC) the solutions are acidified to pH 2 by adding 1 N HCl and extracted three times with dichloromethane to obtain the unconverted amides. The aqueous layers are neutralized with 1 N NaOH solution and extracted again three times with dichloromethane to recover the formed amines. Both organic phases are dried with MgSO4, filtered and the solvent is distilled off. The amides are used directly for optical purity determinations (HPLC), whereas the obtained amines are converted to the acetamides by adding 100 μl triethylamine and 100 μl acetic anhydride to each sample and then analyzed for the optical purity by "chiral" HPLC.
# The experiments are carried out in the same manner as described in example 22.
# [2] = system: whole cells of Rhodococcus globerulus K1/1; experiment: Amide hydrolysis with whole cells of Rhodococcus globerulus K1/1; type: cell-based; conditions: for Selectivity E: enantioselectivity of the hydrolysis; for e.e. (S)-Amine: formed amine, analysed as acetamide; for e.e. (R)-Amide: unconverted amide, chiral HPLC
# Description: as §2
# To 50 ml of a 10 mM solution in phosphate buffer pH 7.0 of each racemic amide listed in table 16, whole cells of Rhodococcus globerulus K1/1 (each obtained from 50 ml shake flask medium (see example 21), OD660 =2.0) is added. The deacetylation is performed at 30° C. under continuous shaking (200 rpm). The reaction is monitored by HPLC and after the conversion is about 50% the reaction mixtures are worked up in the same manner as described in example 22.
# K1/1 acylase = experiment: Hydrolysis of racemic 2-acetylamino-1-phenyl-4-pentene with the purified K1/1 acylase; type: biochemical, Rhodococcus globerulus K1/1; conditions: at 50.3% conversion
# Protocol: To 50 ml of a 10 mM solution of racemic 2-acetylamino-1-phenyl-4-pentene in phosphate buffer (pH 7.0) 7 ml of the K1/1 acylase are added (0.456 U), which has been purified by HIC and concentrated by ultrafiltration (example 26.5 and 26.6). The deacylation is performed at 30° C. under continuous shaking at 200 rpm. The reaction is monitored by HPLC (see example 1), and after the conversion is about 50% the solution is acidified to pH 2 with 1 N HCl and extracted three times with one volume of dichloromethane to obtain the unconverted amides. The aqueous phase is neutralized with 1 N NaOH and extracted again three times with dichloromethane to recover the formed amines. Both organic phases are dried with MgSO4, filtered and the solvent is distilled off. The amides are used directly for optical purity determinations via HPLC under the following conditions: Chiralcel OJ column, hexane/isopropanol 9:1 as the eluent, flow rate 1 ml/min., detection at 208 nm. The obtained amines are converted to the acetamides by adding […] to each sample before being also analyzed for the optical purity by HPLC.
# [3] = system: acylase from Arthrobacter aurescens Ac5R; experiment: Enzymatic hydrolysis of racemic amides with highly purified acylase from Arthrobacter aurescens Ac5R; type: biochemical; conditions: for Selectivity E: enantioselectivity of the hydrolysis; for e.e. (R)-Amine: formed amine, analysed as acetamide by chiral HPLC; for e.e. (S)-Amide: unconverted amide, chiral HPLC
# Protocol: as §1, §2
# R. equi Ac6 = experiment: Growth and induction of the acylase of Rhodococcus equi Ac6 (shake flask culture); type: cell-based; conditions: for induction of the acylase expression of strain Ac6: 3 g/l in basic medium; for Enzyme yield with (R)-amide as the acylase substrate / Enzyme yield with (S)-amide as the acylase substrate: basic medium + 3 g/l of the amide as inducer; for Enzyme yield with (R)-amide as the acylase substrate / Enzyme yield with (S)-amide as the acylase substrate / OD660 at cell harvest: 91 h; for OD660 at cell harvest: basic medium + 3 g/l of the amide, basic medium alone 0.46; for effect on growth of Rhodococcus equi Ac6: in the growth medium
# Protocol: R. equi Ac6 is grown in basic medium containing 3 g/l (S)-N-acetyl-1-phenylethylamine or 3 g/l (R)-N-acetyl-1-phenylethylamine or no N-acetyl-1-phenylethylamine for 91 h by the shake flask culture technique described in example 1. By applying the methods given in example 1 the crude extracts are prepared and subjected to measurement of the protein concentration and the acylase activity using (S)-N-acetyl-1-phenylethylamine and (R)-N-acetyl-1-phenylethylamine as the substrates.
# R. equi Ac6 cells are inoculated into three 1 l Erlenmeyer flask containing each 100 ml of basic medium with 10 g/l yeast extract and 10 g/l meat extract as additional nutrients. The cells are grown (shake flask technique see example 1) until the OD660 reaches about 2. Then the culture is split into eight portions of 25 ml and (S)-N-acetyl-1-phenylethylamine is added to the shake flasks in final concentrations of 0-7 g/l in steps of 1 g/l. The cells are further incubated for 25 h. Then the protein concentrations and acylase activities of the crude extracts are measured as described in example 1.
# In another experiment (S)-N-acetyl-1-phenylethylamine is added to the culture medium in final concentrations of 1 to 5 g/l in steps of 1 g/l directly after inoculation to one series of shake flasks (see example 1) and after 72 h of growth to another. Basic medium without peptone supplemented with 20 g/l meat extract and 20 g/l yeast extract is used. 96 h after inoculation the cells are harvested by centrifugation and the protein concentration and acylase activity in the crude extract are measured (see example 1).
# AcR5b-acylase [4] = experiment: Stability of the AcR5b-acylase during freezing, with and without cryoprotective agents; type: physicochemical, Arthrobacter aurescens AcR5b
# AcR5b-acylase [5] = experiment: Dependence of the reaction velocity of the AcR5b-acylase on substrate concentration (Km, Vmax); type: biochemical, Arthrobacter aurescens AcR5b; conditions: for Km: 30 min incubation, pH 7; for relative maximum reaction velocity: (R)-N-acetyl-1-phenylethylamine = 100
# Protocol: Activity assays are performed under the standard conditions given in example 11 with an incubation time of 30 min. using different initial concentrations of (R)-N-acetyl-1-phenylethylamine and racemic N-acetyl-(m-cyano-phenyl)ethylamine. The final AcR5b-acylase preparation obtained in example 4d, which has been diluted 20 fold with 69 mM potassium phosphate buffer, pH 7, serve as the enzyme source. The Michaelis constants (Km) and the maximum reaction velocities are calculated as described in example 9.
# [6] = AcR5b-acylase frozen 2.5 h at -20° C. with the cryoprotective agent of the label (label AcR5b-acylase = none)
# [7] = AcR5b-acylase frozen 2.5 h at -80° C. with the cryoprotective agent of the label (label AcR5b-acylase = none)
# [8] = AcR5b-acylase frozen 9 days at -20° C. with the cryoprotective agent of the label (label AcR5b-acylase = none)
# [9] = AcR5b-acylase frozen 9 days at -80° C. with the cryoprotective agent of the label (label AcR5b-acylase = none)
smiles,measurement,setting,value
CC(=O)NC(C)c1ccc2ccccc2c1 (racemic) [Substrate 7a],Selectivity E,[1],88
same,e.e. (S)-Amine,[1],97.4
same,e.e. (R)-Amide,[1],16.4
CCC(Cc1ccccc1)NC(C)=O (racemic) [Substrate 12a],Selectivity E,[2],87
same,e.e. (S)-Amine,[2],93.0 and 87.9
same,e.e. (R)-Amide,[2],90.7 and > 99.9
C=CC[C@H](Cc1ccccc1)NC(C)=O [(R)-N-2-acetylamino-1-phenyl-4-pentene],ee of the unconverted amide,K1/1 acylase,98.8 % ee
CCCC(Cc1ccccc1)NC(C)=O (racemic) [Substrate 11a],Selectivity E,[2],35
same,e.e. (S)-Amine,[2],77.8
same,e.e. (R)-Amide,[2],97.8
CC(=O)NC(C)c1ccc2c(c1)OCO2 (racemic) [Substrate 8a],Selectivity E,[3],60
same,e.e. (R)-Amine,[3],91.5
same,e.e. (S)-Amide,[3],82.4
same,Selectivity E,[1],280
same,e.e. (S)-Amine,[1],97.8
same,e.e. (R)-Amide,[1],90.1
CC(=O)N[C@@H](C)c1ccccc1 [(S)-N-acetyl-1-phenylethylamine],maximal acylase production,"R. equi Ac6; 2 g/l inducer added 72 h after inoculation, harvest 96 h",20 U/lculture medium
same,induction of the acylase expression of strain Ac6,R. equi Ac6,has to be present in the growth medium to induce the acylase expression
same,maximal acylase yield,"R. equi Ac6; 3 g/l inducer added directly after inoculation, harvest 96 h",60 U/lculture medium
same,Enzyme yield with (R)-amide as the acylase substrate,R. equi Ac6,< 0.4 U/lculture broth
same,Enzyme yield with (S)-amide as the acylase substrate,R. equi Ac6,38.2 U/lculture broth
same,OD660 at cell harvest,R. equi Ac6,1.52
same,effect on growth of Rhodococcus equi Ac6,R. equi Ac6,inhibits the growth of the cells
"OCC(O)CO [5% Glycerol, Glycerol]",Relative activity (%),AcR5b-acylase [4]; [6],100%
same,Relative activity (%),AcR5b-acylase [4]; [7],100%
same,Relative activity (%),AcR5b-acylase [4]; [8],89%
same,Relative activity (%),AcR5b-acylase [4]; [9],97%
C=CCC(Cc1ccccc1)NC(C)=O (racemic) [Substrate 10a],Selectivity E,[2],70
same,e.e. (S)-Amine,[2],90.0
same,e.e. (R)-Amide,[2],95.7
CC(=O)NC(C)c1ccc(C#N)cc1 (racemic) [Substrate 3a],Selectivity E,[3],320
same,e.e. (R)-Amine,[3],95.0
same,e.e. (S)-Amide,[3],> 99.9
same,Selectivity E,[1],> 500
same,e.e. (S)-Amine,[1],> 99.9
same,e.e. (R)-Amide,[1],97.4
CC(=O)N[C@H](C)c1ccccc1 [(R)-N-acetyl-1-phenylethylamine],Km,AcR5b-acylase [5],5.7 mM
same,relative maximum reaction velocity,AcR5b-acylase [5],100%
same,induction of the acylase expression of strain Ac6,R. equi Ac6,not effective as an inducer
same,Enzyme yield with (R)-amide as the acylase substrate,R. equi Ac6,0 U/lculture broth
same,Enzyme yield with (S)-amide as the acylase substrate,R. equi Ac6,0 U/lculture broth
same,OD660 at cell harvest,R. equi Ac6,0.19
same,effect on growth of Rhodococcus equi Ac6,R. equi Ac6,inhibits the growth of the bacterium
CC(=O)NC1CCc2ccccc21 (racemic) [Substrate 5a],Selectivity E,[3],180
same,e.e. (R)-Amine,[3],95.7
same,e.e. (S)-Amide,[3],96.1
same,Selectivity E,[1],65
same,e.e. (S)-Amine,[1],88.2
same,e.e. (R)-Amide,[1],96.7
"OC[C@H]1O[C@@](CO)(O[C@H]2O[C@H](CO)[C@@H](O)[C@H](O)[C@H]2O)[C@@H](O)[C@@H]1O [10% Saccharose, Saccharose]",Relative activity (%),AcR5b-acylase [4]; [6],100%
same,Relative activity (%),AcR5b-acylase [4]; [7],100%
same,Relative activity (%),AcR5b-acylase [4]; [8],100%
same,Relative activity (%),AcR5b-acylase [4]; [9],92%
"CC(=O)NC(C)c1cccc(C#N)c1 (racemic) [racemic (m-cyano) derivative, N-acetyl-(m-cyano-phenyl)ethylamine]",Km,AcR5b-acylase [5],10.4 mM
same,relative maximum reaction velocity,AcR5b-acylase [5],23%
"N.N.O=S(=O)(O)O [10% (NH4)2 SO4, (NH4)2 SO4]",Relative activity (%),AcR5b-acylase [4]; [6],100%
same,Relative activity (%),AcR5b-acylase [4]; [7],92%
same,Relative activity (%),AcR5b-acylase [4]; [8],81%
same,Relative activity (%),AcR5b-acylase [4]; [9],83%
CCC(NC(C)=O)c1ccccc1 (racemic) [Substrate 4a],Selectivity E,[3],> 500
same,e.e. (R)-Amine,[3],> 99.9
same,e.e. (S)-Amide,[3],87.4
same,Selectivity E,[1],> 500
same,e.e. (S)-Amine,[1],98.5
same,e.e. (R)-Amide,[1],> 99.9
same,Selectivity E,[2],140
same,e.e. (S)-Amine,[2],90.0
same,e.e. (R)-Amide,[2],> 99.9
"OCC(O)CO [50% Glycerol, Glycerol]",Relative activity (%),AcR5b-acylase [4]; [6],77%
same,Relative activity (%),AcR5b-acylase [4]; [7],100%
same,Relative activity (%),AcR5b-acylase [4]; [8],98%
same,Relative activity (%),AcR5b-acylase [4]; [9],90%
CC(=O)NC1CCOc2ccccc21 (racemic) [Substrate 6a],Selectivity E,[3],32
same,e.e. (R)-Amine,[3],90.5
same,e.e. (S)-Amide,[3],46.6
same,Selectivity E,[2],290
same,e.e. (S)-Amine,[2],93.5
same,e.e. (R)-Amide,[2],> 99.9
C=CC[C@H](N)Cc1ccccc1 [(S)-2-amino-1-phenyl-4-pentene],ee of the formed amine,K1/1 acylase,87.4 % ee
CC(=O)NC(C)c1cccc(C#N)c1 (racemic) [Substrate 2a],Selectivity E,[3],60
same,e.e. (R)-Amine,[3],91.5
same,e.e. (S)-Amide,[3],82.4
same,Selectivity E,[1],> 500
same,e.e. (S)-Amine,[1],> 99.9
same,e.e. (R)-Amide,[1],85.5
